Assay results: US9422296B2, “Fast-dissociating dopamine 2 receptor antagonists” (Janssen Pharmaceutica NV, priority 2007, dated 2016)
Where two headings read alike, the source gives them in different places.

Assays:
[1] = biological target: T1, human Dopamine D3 receptor (Homo sapiens, UniProt P35462); test: In vitro binding affinity for human D3 receptor ([125I]iodosulpride)
T1 construct: expressed in transfected cells; host or cells: CHO cells (membranes)
Procedure: In Vitro Binding Affinity for Human D3 Receptor
Frozen membranes of human Dopamine D3 receptor-transfected CHO cells were thawed, briefly homogenized using an Ultra-Turrax T25 homogeniser and diluted in 50 mM Tris-HCl assay buffer containing 120 mM NaCl, 2 mM CaCl2, 1 mM MgCl2, 5 mM KCl and 0.1% BSA (adjusted to pH 7.4 with HCl) to an appropriate protein concentration optimized for specific and non-specific binding. Radioligand [^125I]Iodosulpride (Amersham, specific activity ˜2000 Ci/mmol) was diluted in assay buffer at a concentration of 2 nM. Prepared radioligand (20 μl), along with 40 μl of either the 10% DMSO control, Risperidone (10^−6M final concentration), or compound of interest, was then incubated with 70 μl of the prepared membrane solution and 70 μl of WGA coated PVT beads (0.25 mg/well final concentration). After shaking for 24 hours at RT plates were counted in a Topcount™ scintillation counter. Percentage specific binding and competition binding curves were calculated using S-Plus software (Insightful).

[2] = biological target: T2, human Serotonin 5HT6 receptor (Homo sapiens, UniProt P50406); test: In vitro binding affinity for human 5HT6 receptor ([3H]lysergic acid diethylamide); conditions: [3H]LSD, membranes of human 5HT6 receptor-transfected HEK cells; read-out: 5-HT6 binding pIC50 (converted)
T2 construct: expressed in transfected cells; host or cells: HEK cells (membranes)
T2 sequence (P50406 whole entry): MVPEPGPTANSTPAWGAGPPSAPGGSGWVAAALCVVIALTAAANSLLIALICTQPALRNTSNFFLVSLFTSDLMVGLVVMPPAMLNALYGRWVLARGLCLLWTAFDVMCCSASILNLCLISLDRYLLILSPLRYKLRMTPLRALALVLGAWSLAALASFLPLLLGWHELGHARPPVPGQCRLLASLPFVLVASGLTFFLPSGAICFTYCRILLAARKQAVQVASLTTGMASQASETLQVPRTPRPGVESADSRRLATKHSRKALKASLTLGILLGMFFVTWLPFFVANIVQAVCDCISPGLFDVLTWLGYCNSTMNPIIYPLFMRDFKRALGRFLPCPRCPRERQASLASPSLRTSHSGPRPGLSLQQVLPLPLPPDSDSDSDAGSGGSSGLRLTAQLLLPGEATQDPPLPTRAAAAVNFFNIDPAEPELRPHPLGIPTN
Procedure: In Vitro Binding Affinity for Human 5HT6 Receptor
Frozen membranes of human Serotonin 5HT6 receptor-transfected HEK cells were thawed, briefly homogenized using an Ultra-Turrax T25 homogeniser and diluted in 50 mM Tris-HCl assay buffer containing 10 mM MgCl2, 1 mM EDTA and 10 μM Pargyline (adjusted to pH 7.4 with HCl) to an appropriate protein concentration optimized for specific and non-specific binding. Radioligand [^3H]Lysergic acid diethylamide (Perkin Elmer, specific activity ˜80 Ci/mmol) was diluted in assay buffer at a concentration of 20 nM. Radioligand (20 μl), along with 40 μl of either the 10% DMSO control, Methiothepine (10^−5 M final concentration), or compound of interest, was then incubated with 70 μl of the prepared membrane solution and 70 μl of WGA coated PVT beads (0.25 mg/well final concentration). After shaking for 24 hours at RT plates were counted in a Topcount™ scintillation counter. Percentage specific binding and competition binding curves were calculated using S-Plus software (Insightful).

human D2L receptor = biological target: T3, human D2L receptor (Homo sapiens, UniProt P14416); test: Fast dissociation: indirect assay of rate of dissociation from D2 receptor ([3H]spiperone binding after pre-incubation with compound); conditions: [3H]spiperone binding as % of total binding capacity after 5 min on filter; compound pre-incubated at 4 times its IC50; >50% = faster than clozapine
T3 construct: expressed in transfected cells
T3 sequence (P14416 whole entry): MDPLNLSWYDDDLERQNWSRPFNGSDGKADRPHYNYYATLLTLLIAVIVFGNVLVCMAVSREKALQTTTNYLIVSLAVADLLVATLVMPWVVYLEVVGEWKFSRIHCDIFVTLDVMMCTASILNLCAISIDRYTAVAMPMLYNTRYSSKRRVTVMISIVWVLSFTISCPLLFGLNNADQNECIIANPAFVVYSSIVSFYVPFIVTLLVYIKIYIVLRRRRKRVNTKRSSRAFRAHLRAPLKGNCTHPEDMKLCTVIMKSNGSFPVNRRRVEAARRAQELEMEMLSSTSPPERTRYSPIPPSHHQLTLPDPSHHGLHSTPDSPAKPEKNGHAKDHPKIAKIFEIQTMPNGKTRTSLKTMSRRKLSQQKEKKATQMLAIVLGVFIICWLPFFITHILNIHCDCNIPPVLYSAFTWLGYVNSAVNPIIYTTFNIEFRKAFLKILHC
Procedure: Compounds were first screened for their D2 affinity in a binding assay using [^3H]spiperone and human D2L receptor cell membranes.
Compounds at a concentration of 4 times their IC50 were first incubated for one hour with human D2L receptor cell membranes in a volume of 2 ml at 25° C., then filtered over glass-fibre filter under suction using a 40 well multividor Immediately after, the vacuum was released. 0.4 ml of pre-warmed buffer (25° C.) containing 1 nM [^3H]spiperone was added on the filter for 5 minutes. The incubation was stopped by initiating the vacuum and immediate rinsing with 2×5 ml of ice-cold buffer. The filter-bound radioactivity was measured in a liquid scintillation spectrometer. The principle of the assay is based on the assumption that the faster a compound dissociates from the D2 receptor, the faster [^3H]spiperone binds to the D2 receptor.

[3] = biological target: T4, human Dopamine D2L receptor (Homo sapiens, UniProt P14416); test: In vitro binding affinity for human D2L receptor ([3H]spiperone); conditions: membranes of human D2L receptor-transfected CHO cells, read-out: D2L binding pIC50 (converted)
T4 construct: expressed in transfected cells; host or cells: CHO cells (membranes)
T4 sequence (P14416 whole entry): as above
From the text: In order to find antipsychotic compounds active against positive and negative symptoms and cognitive impairment, and having an improved safety profile (low EPS incidence and no metabolic disorders), we have screened for compounds selectively interacting with the dopamine D2 receptor and dissociating fast from this receptor, and further having affinity for the dopamine D3 receptor as well as the serotonin 5-HT-6 receptor. Compounds were first screened for their D2 affinity in a binding assay using [^3H]spiperone and human D2L receptor cell membranes.
Pharmacology In Vitro Binding Affinity for Human D2L Receptor
Frozen membranes of human Dopamine D2L receptor-transfected CHO cells were thawed, briefly homogenised using an Ultra-Turrax T25 homogeniser and diluted in Tris-HCl assay buffer containing NaCl, CaCl2, MgCl2, KCl (50, 120, 2, 1, and 5 mM respectively, adjusted to pH 7.7 with HCl) to an appropriate protein concentration optimised for specific and non-specific binding. Radioligand [^3H]Spiperone (NEN, specific activity ˜70 Ci/mmol) was diluted in assay buffer at a concentration of 2 nmol/L. Prepared radioligand (50 μl), along with 50 μl of either the 10% DMSO control, Butaclamol (10^−6 mol/1 final concentration), or compound of interest, was then incubated (30 min, 37° C.) with 400 μl of the prepared membrane solution. Membrane-bound activity was filtered through a Packard Filtermate harvester onto GF/B Unifilterplates and washed with ice-cold Tris-HCl buffer (50 mM; pH 7.7; 6×0.5 ml). Filters were allowed to dry before adding scintillation fluid and counting in a Topcount scintillation counter. Percentage specific bound and competition binding curves were calculated using S-Plus software (Insightful).

[4] = tested on: subchronic PCP-induced attentional set shifting; test: Reversal of subchronic PCP-induced attentional set shifting in rats; format: in vivo
From the text: Compound E1 was further found to be active in the ‘Reversal of subchronic PCP-induced attentional set shifting in rats’ test (J. S. Rodefer et al., Neurospychopharmacology (2007), 1-10).

[5] = [125I]iodosulpride, membranes of human D3 receptor-transfected CHO cells, read-out: D3 binding pIC50 (converted)

T1 sequence (P35462 whole entry): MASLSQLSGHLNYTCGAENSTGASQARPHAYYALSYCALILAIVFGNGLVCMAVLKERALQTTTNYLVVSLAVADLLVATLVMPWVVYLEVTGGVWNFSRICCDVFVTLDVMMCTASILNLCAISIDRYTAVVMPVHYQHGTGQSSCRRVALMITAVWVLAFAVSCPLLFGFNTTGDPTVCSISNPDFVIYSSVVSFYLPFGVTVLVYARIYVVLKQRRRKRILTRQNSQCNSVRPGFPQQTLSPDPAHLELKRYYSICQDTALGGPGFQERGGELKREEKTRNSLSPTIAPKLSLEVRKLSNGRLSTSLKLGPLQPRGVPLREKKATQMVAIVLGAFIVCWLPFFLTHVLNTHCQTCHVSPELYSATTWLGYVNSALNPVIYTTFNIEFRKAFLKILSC

In the case of FC(F)(F)c1nnc(N2CCN3CCCC3C2)cc1-c1ccccc1 (racemic) [Example E5, 2-(5-Phenyl-6-trifluoromethyl-pyridazin-3-yl)-octahydro-pyrrolo[1,2-a]pyrazine], the IC50 [1, 5] is reported as over 10000 nM, the IC50 [2] is reported as 1020 nM and the D2 dissociation (human D2L receptor) is reported as 84%. The IC50 [3] was 1260 nM.
Work on FC(F)(F)c1nnc(N2CCNCC2)cc1-c1ccccc1 [Example E1, 4-Phenyl-6-piperazin-1-yl-3-trifluoromethyl-pyridazine] yielded a melting point of 130.7 °C, an IC50 [1, 5] of 66.1 nM and an IC50 [2] of 589 nM. For the same compound, the D2 dissociation (human D2L receptor) was 75%, the IC50 [3] was 1100 nM and the “activity in reversal of subchronic PCP-induced attentional set shifting” value [4] was “active”.
CCN1CCN(c2cc(-c3ccccc3)c(C(F)(F)F)nn2)CC1 [Example E2, 6-(4-Ethylpiperazin-1-yl)-4-phenyl-3-trifluoromethyl-pyridazine] showed an IC50 [1, 5] of 25.1 nM, an IC50 [2] of 3160 nM and a D2 dissociation (human D2L receptor) of 80.5%. The IC50 [3] was 204 nM.
For Fc1ccc(-c2cc(N3CCNCC3)nnc2C(F)(F)F)cc1 [Example E6, 4-(4-Fluorophenyl)-6-piperazin-1-yl-3-trifluoromethyl-pyridazine], the melting point was 137.4 °C, the IC50 [1] was 36.3 nM and the IC50 [2] was 214 nM. For the same compound, the D2 dissociation (human D2L receptor) was 55% and the IC50 [3] was 372 nM.
Compound FC(F)(F)c1nnc(N2CCNCC2)cc1-c1ccsc1 [Example E7, 6-Piperazin-1-yl-4-thiophen-3-yl-3-trifluoromethyl-pyridazine] has a melting point of 244.3 °C, an IC50 [1, 5] of over 10000 nM and an IC50 [2] of 1550 nM. It also gave a D2 dissociation (human D2L receptor) of 81% and an IC50 [3] of 871 nM.
Cc1ccccc1-c1cc(N2CCNCC2)nnc1C(F)(F)F [Example E8, 6-Piperazin-1-yl-4-o-tolyl-3-trifluoromethyl-pyridazine] showed an IC50 [1, 5] of over 10000 nM, an IC50 [2] of 263 nM and a D2 dissociation (human D2L receptor) of 78.5%. For the same compound, the IC50 [3] was 1000 nM.
Fc1ccc(-c2ccc(-c3cc(N4CCNCC4)nnc3C(F)(F)F)cc2)cc1 [Example E9, 4-(4′-Fluorobiphenyl-4-yl)-6-piperazin-1-yl-3-trifluoromethyl-pyridazine] gave a melting point of 161.9 °C, an IC50 [1, 5] of 47.9 nM and an IC50 [2] of 1820 nM. It also gave a D2 dissociation (human D2L receptor) of 48% and an IC50 [3] of 794 nM.
N#Cc1nnc(N2CCNCC2)cc1-c1ccccc1 [Example E10, 4-Phenyl-6-piperazin-1-yl-pyridazine-3-carbonitrile] gave a melting point of 271.6 °C, an IC50 [1, 5] of over 10000 nM and an IC50 [2] of 4570 nM. It also gave a D2 dissociation (human D2L receptor) of 86% and an IC50 [3] of 5620 nM.
For Cc1csc(-c2cc(N3CCNCC3)nnc2C(F)(F)F)c1 [Example E30], the melting point was 98.1 °C, the IC50 [1, 5] was 53.7 nM and the IC50 [2] was 562 nM. For the same compound, the IC50 [3] was 759 nM.
For FC(F)(F)c1nnc(N2CCNCC2)cc1-c1ccc(-c2ccccc2)cc1 [Example E35], the melting point was 199.1 °C, the IC50 [1, 5] was 107 nM and the IC50 [2] was 1510 nM. The IC50 [3] was 2690 nM.
